Tests used:
[1] = molecular target: T1, Cytosol Progesterone Receptor of the Estrogen-primed Immature Rabbit Uterus (Oryctolagus cuniculus, UniProt P06186); test: Relative binding affinity for progesterone receptor (competition with 3H-progesterone); parameters: species or system rabbit (New Zealand White); conditions: for RBA: 16-18 hour incubation, progesterone = 100
T1 construct: cytosol progesterone receptor of the estrogen-primed immature rabbit uterus; tissue Dutchland Laboratories, Inc., Denver, Pa (animals); host or cells: uterus cytosol of estradiol-treated immature female New Zealand White rabbits
T1 sequence (P06186 1-930): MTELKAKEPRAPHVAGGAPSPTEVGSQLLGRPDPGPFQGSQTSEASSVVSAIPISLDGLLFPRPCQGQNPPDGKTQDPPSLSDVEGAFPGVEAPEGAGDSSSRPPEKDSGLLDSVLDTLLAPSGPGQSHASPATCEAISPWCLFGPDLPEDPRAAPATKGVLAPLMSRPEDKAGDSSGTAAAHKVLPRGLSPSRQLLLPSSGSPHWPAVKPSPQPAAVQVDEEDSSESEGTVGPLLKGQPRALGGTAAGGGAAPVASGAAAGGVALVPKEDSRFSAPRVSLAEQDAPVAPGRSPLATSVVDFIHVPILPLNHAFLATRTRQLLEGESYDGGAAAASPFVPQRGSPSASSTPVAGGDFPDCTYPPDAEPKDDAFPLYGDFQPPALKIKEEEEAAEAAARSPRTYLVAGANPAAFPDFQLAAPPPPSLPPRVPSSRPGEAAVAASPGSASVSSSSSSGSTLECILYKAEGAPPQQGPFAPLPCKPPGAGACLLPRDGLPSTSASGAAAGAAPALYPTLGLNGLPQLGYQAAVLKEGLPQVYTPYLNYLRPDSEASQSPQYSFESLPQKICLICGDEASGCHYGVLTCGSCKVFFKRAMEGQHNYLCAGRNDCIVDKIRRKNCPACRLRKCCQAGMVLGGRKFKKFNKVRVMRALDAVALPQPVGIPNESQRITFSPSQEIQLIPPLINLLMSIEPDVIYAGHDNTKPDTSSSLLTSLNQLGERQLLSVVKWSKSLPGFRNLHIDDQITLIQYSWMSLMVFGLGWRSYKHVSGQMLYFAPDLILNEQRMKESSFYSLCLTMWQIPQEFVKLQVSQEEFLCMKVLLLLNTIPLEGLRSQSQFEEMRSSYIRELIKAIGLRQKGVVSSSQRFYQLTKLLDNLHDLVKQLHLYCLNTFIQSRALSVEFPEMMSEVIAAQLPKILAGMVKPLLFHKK
Description: RBA values recorded at 0° C. after short incubation times (e.g., 2 hr) mainly reflect differences in the association rate constants of the competing ligands, whereas those measured after long incubation times (e.g., 16 to 24 hr) and/or higher temperatures predominantly are influenced by differences in the dissociation rate constants of the competing ligands. RBA's determined after short incubation times primarily reflect the association of the competitor compared to the natural hormone. Conversely, RBA's measured after long incubation times reflect the dissociation rate of the competitor compared to the natural hormone.
The assay components are combined, allowed to equilibrate, and unbound radioactivity removed by charcoal adsorption.
Animal species. Immature female New Zealand White rabbits weighing 0.8 to 1.0 kg (Dutchland Laboratories, Inc., Denver, Pa).
Pretreatment. Subcutaneous treatment with 15 μg 17β-estradiol/0.6 ml sesame oil each morning (0830 to 0930 hr) for three days. Animals sacrificed 24 hr after final injection.
Tissue. Uterus; each uterus weighed about 1.0 g and two or three uteri were pooled for each assay.
Buffer. (A) 0.01M TES, pH 7.4, 1 mM EDTA, 0.012M thioglycerol and 30% glycerol for cytosol preparation and ^3 H-steroid, unlabeled hormone and compound solutions. (B) 0.01M TES, pH 7.4, 1 mM EDTA and 0.012M thioglycerol for charcoal solution.
Homogenization. Five or six 5-second bursts with 30 second cooling periods between bursts using Brinkman Polytron Pt. 10 at 3.5 rheostat setting.
Temperature. 0°-4° C. for all steps.
Centrifugation. 45,000 rpm for 1 hr, 50 Ti rotor, Beckman L8-80 ultracentrifuge.
Incubation. 16-18 hr at 4°-6° C.
Concentations. 1×10^-10 M to 1×10^-5 M (7 concentrations).
Method. Charcoal adsorption method used to remove unbound radioactivity. Five-tenths ml of dextran-coated charcoal (0.5% Norit A and 0.05% dextran T-70) added to all tubes except total radioactivity tubes (0.5 ml buffer [B] added), tubes vortexed 3-5 sec, allowed to sit for 10 minutes and centrifuged 10 minutes at 2000 rpm in Beckman TJ-6 centrifuge at 0°-4° C.
Data Interpretation. […] The relative binding affinity (RBA) of each compound was calculated by using the following equation. [formula] where

[2] = tested on: uterine endometrium of estrone-primed immature rabbits; test: Clauberg assay (progestational activity, McPhail); format: in vivo, rabbit (New Zealand White); conditions: for McPhail Index (0-4) (X ± S.D.): 0 none, 4 maximal
[3] = tested on: androgen target organs of castrate immature male rats; test: Anti-androgenic activity in the castrate immature rat assay; format: in vivo; conditions: testosterone alone sc
Description: The oral anti-androgenic activity of 6-methyl-6-dehydro-17α-ethynylprogesterone was evaluated in the castrate immature male rat assay [Lerner et al., Proc. Soc. […] The assay is briefly described in the footnotes to Table 11.
*This assay employs castrate immature rats. For methods refer to Lerner,
L. J., A. Bianchi and A. Borman, Proc. Soc.
**Groups of rats (7/group) were given daily injections of 0.3 ml sesame
oil (control) or compound (in 0.3 ml sesame oil) for 7 days. Some groups
also concurrently received progestational compounds by the sc or oral
route of administration in order to evaluate antiandrogenic activity. One
day after the final doses, the animals were sacrificed and the androgen
target organs indicated were weighed.
***Statistically significant (p < 0.05) lower organ weights versus the
testosterone, sc, (400 μg/rat/day) group as determined by Analysis of
Variance coupled with Duncan's Multiple Range Test.

CC(=O)[C@H]1CC[C@H]2[C@@H]3C[C@H](C)C4=CC(=O)CC[C@]4(C)[C@H]3CC[C@]12C [6α-Methylprogesterone, reference compound]
RBA ([1]; Assay 4): 57%

C#C[C@]1(C(C)=O)CC[C@H]2[C@@H]3CC[C@H]4CC(=O)CC[C@@H]4[C@H]3CC[C@@]21C [17α-Ethynyl-19-nor-5α-pregnane-3,20-dione]
RBA ([1]; Assay 4): 67%
RBA ([1]; Assay 5): 66%

C#C[C@]1(C(C)=O)CC[C@H]2[C@@H]3CCC4=CC(=O)CC[C@@H]4[C@H]3CC[C@@]21C [17α-Ethynyl-19-norprogesterone, 17α-ethynyl-19-nor-4-pregnene-3,20-dione]
RBA ([1]; Assay 4): 100%
RBA ([1]; Assay 5): 133%
progesterone receptor binding, in words ([1]; compared with progesterone): slightly greater than that of progesterone itself
progestational potency relative to subcutaneous progesterone, in words ([2]; compound given orally, progesterone sc): roughly comparable to subcutaneously administered progesterone
progestational potency relative to progesterone (sc) ([2]; compound given sc): about 100 times
Uterine Weight (X ± S.D.) ([2]; oral, 50 μg/rabbit daily): 1.41 ± 0.02 g
McPhail Index (0-4) (X ± S.D.) ([2]; oral, 50 μg/rabbit daily): 0.38 ± 0.27
Uterine Weight (X ± S.D.) ([2]; oral, 100 μg/rabbit daily): 1.72 ± 0.36 g
McPhail Index (0-4) (X ± S.D.) ([2]; oral, 100 μg/rabbit daily): 1.17 ± 1.10
Uterine Weight (X ± S.D.) ([2]; oral, 200 μg/rabbit daily): 1.70 ± 0.33 g
McPhail Index (0-4) (X ± S.D.) ([2]; oral, 200 μg/rabbit daily): 0.83 ± 0.72
Uterine Weight (X ± S.D.) ([2]; oral, 400 μg/rabbit daily): 3.40 ± 1.14 g
McPhail Index (0-4) (X ± S.D.) ([2]; oral, 400 μg/rabbit daily): 3.75 ± 0.10
Uterine Weight (X ± S.D.) ([2]; sc, 2.5 μg/rabbit daily): 2.64 ± 0.22 g
McPhail Index (0-4) (X ± S.D.) ([2]; sc, 2.5 μg/rabbit daily): 3.25 ± 0.41
Uterine Weight (X ± S.D.) ([2]; sc, 5 μg/rabbit daily): 3.55 ± 0.54 g
McPhail Index (0-4) (X ± S.D.) ([2]; sc, 5 μg/rabbit daily): 3.97 ± 0.05
Uterine Weight (X ± S.D.) ([2]; sc, 10 μg/rabbit daily): 4.57 ± 0.67 g
McPhail Index (0-4) (X ± S.D.) ([2]; sc, 10 μg/rabbit daily): 3.92 ± 0.12
Uterine Weight (X ± S.D.) ([2]; sc, 20 μg/rabbit daily): 4.94 ± 0.87 g
McPhail Index (0-4) (X ± S.D.) ([2]; sc, 20 μg/rabbit daily): 4.00 ± 0.00

C[C@]12CC[C@H]3[C@@H](CCC4=CC(=O)CC[C@@]43C)[C@@H]1CC[C@@H]2O [Testosterone]
Levator Ani weight (X ± S.D.) ([3]; 25 μg/rat daily): 36 ± 4 mg
Seminal Vesicles weight (X ± S.D.) ([3]; 25 μg/rat daily): 23 ± 12 mg
Ventral Prostate weight (X ± S.D.) ([3]; 25 μg/rat daily): 18 + 5 mg
Levator Ani weight (X ± S.D.) ([3]; 100 μg/rat daily): 53 ± 6 mg
Seminal Vesicles weight (X ± S.D.) ([3]; 100 μg/rat daily): 66 ± 6 mg
Ventral Prostate weight (X ± S.D.) ([3]; 100 μg/rat daily): 35 ± 5 mg
Levator Ani weight (X ± S.D.) ([3]; 400 μg/rat daily): 63 ± 14 mg
Seminal Vesicles weight (X ± S.D.) ([3]; 400 μg/rat daily): 163 ± 43 mg
Ventral Prostate weight (X ± S.D.) ([3]; 400 μg/rat daily): 70 ± 22 mg

From patent US4512986A, “Progrestationally active steroids” (priority 1983, dated 1985)
